These results are taken from publication PMC8151276, “An Integrated Approach toward NanoBRET Tracers for Analysis of GPCR Ligand Engagement” (Molecules, 2021).

What all share (assay type): binding
One experiment deals with T1, FZD8 (Homo sapiens, UniProt Q9H461).
T1 construct: purchased Promega (in-house HiBiT-GPCR construct library, NanoBRET)
The experiment can be described thus: NanoBRET screen HiBiT-FZD8 in HEK293. Here is the method: (§1) Each tracer candidate was screened across the entire library of HiBiT-GPCR constructs using NanoBRET as the detection modality. As depicted in Figure 4A, the specificity of interactions was evaluated through decrease in BRET due to competitive displacement of a bound tracer by excess parental compound. Each tracer was analyzed for binding to each HiBiT-GPCR fusion in the absence and in the presence of competing parental compound. Briefly, HEK293 cells were transfected with HiBiT-GPCR constructs diluted into promoterless DNA to reduce expression and maximize translocation to the cell surface. Each tracer candidate was then screened at concentrations of 1 μM and 0.1 μM across cells expressing these fusions. Cells were treated for 1.5 h with tracer either alone or in the presence of 20 μM competing parental compound (i.e., control). BRET was measured upon addition of purified LgBiT and subsequent complementation with HiBiT genetically fused to a GPCR. The specificity of interactions was assessed through a decrease in BRET signal due to competitive displacement of the bound tracer. To further gauge the robustness of these interactions, the fold response over the control (i.e., BRETtracer/BRETcontrol) was calculated. We chose a 1.5-fold response, which translates to ≥7-fold signal over noise as the minimal threshold required to score an interaction as positive. […]. Below we highlight the screening results obtained for our exemplary fluorescent tracers based on Clozapine, Amitriptyline and AZD1283.
(§2) HiBiT-GPCR DNA constructs were diluted in 10 mM Tris pH 8 to a final concentration of 0.01 μg/μL, arrayed in 96-well plates and stored at −20 °C. For transfection, HEK293 cells were suspended in Opti-MEM (without phenol red) supplemented with 2% fetal bovine serum (Seradigm) and 100 units/mL penicillin–streptomycin (Gibco) at a final concentration of 220,000 cells/mL and dispensed into white 96-well plates at 90 μL/well. Subsequent transfections and screens were carried using an Agilent Bravo Automated Liquid Handling Platform. First, the 96-well HiBiT DNA arrays were diluted 25-fold in Opti-MEM (without serum or phenol red) to a final concentration of 0.0004 μg/μL and 20 μL of the diluted DNAs were transferred into new 96-well plates. Next, promoterless carrier DNA (1 μg/μL) was diluted 25-fold (0.04 μg/μL) and then dispensed into the diluted arrays at 20 μL/well. Following brief mixing, Viafect transfection reagent (Promega) diluted 16-fold into Opti-MEM was dispensed into the plates at 40 μL/well. After mixing by pipetting, plates were incubated for 10 min on the pipetting station deck. The DNA-transfection reagent complexes were then added to plates containing cells. To facilitate the screen, 10 μL of DNA-transfection reagent complexes were added in duplicates to the top 4 and bottom 4 rows, resulting in two identical 48-well arrays per plate. Plates with transfected cells were incubated for 18–20 h at 37 °C/5% CO2. A screen of each tracer across the entire library using two different concentrations requires duplicate plates of transfected cells. Depending on the number of tracers being screened, transfections can be scaled up using the same ratios. The next day, for each tracer, four 20× screening solutions in tracer dilution buffer (Promega) were prepared: two duplicates at final concentration of 20 μM and two duplicates at a final concentration of 2 μM. A competing unmodified compound was added to one of each duplicate at a final concentration of 400 μM. The four resulting solutions were diluted 4-fold in Opti-MEM without serum or phenol red to generate 5× solutions (5 µM and 0.5 µM tracer +/− 100 μM competing compound). To screen the library, a BioTek MultiFlo FX liquid dispenser was used to dispense 22.5 µL of tracer solution to the top 4 rows and 22.5 µL tracer + competing compound solution to the 4 bottom rows. Plates were briefly mixed on an orbital shaker and incubated for 1.5 h at room temperature. […]
Background: In BRET a luciferase serves as donor, and the signal depends on an acceptor being close.

For another experiment, the target named is T2, HRH3 (Homo sapiens, UniProt Q9Y5N1).
T2 construct: purchased Promega (in-house HiBiT-GPCR construct library, NanoBRET)
T2 sequence (Q9Y5N1 whole entry): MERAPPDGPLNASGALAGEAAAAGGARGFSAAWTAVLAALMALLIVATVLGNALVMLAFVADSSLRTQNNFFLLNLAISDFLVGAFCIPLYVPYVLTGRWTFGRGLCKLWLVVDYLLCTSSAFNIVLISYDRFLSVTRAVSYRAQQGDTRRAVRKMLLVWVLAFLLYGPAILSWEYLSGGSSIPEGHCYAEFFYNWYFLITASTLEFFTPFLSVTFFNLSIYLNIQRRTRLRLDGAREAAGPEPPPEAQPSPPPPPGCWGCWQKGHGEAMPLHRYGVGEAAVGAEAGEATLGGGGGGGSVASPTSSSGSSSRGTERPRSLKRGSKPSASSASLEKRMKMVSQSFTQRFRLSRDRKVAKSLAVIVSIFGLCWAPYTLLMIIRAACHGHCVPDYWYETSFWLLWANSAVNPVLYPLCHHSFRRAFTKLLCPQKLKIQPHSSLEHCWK
The experiment can be described thus: NanoBRET screen HiBiT-HRH3 in HEK293. How it is done:
as §1, §2

The next experiment has as its target T3, GHSR (Homo sapiens, UniProt Q92847).
T3 construct: purchased Promega (in-house HiBiT-GPCR construct library, NanoBRET)
In words: NanoBRET screen HiBiT-GHSR in HEK293. How it is done: as §1, §2

The target in another experiment is T4, SSTR1 (Homo sapiens, UniProt P30872).
T4 construct: purchased Promega (in-house HiBiT-GPCR construct library, NanoBRET)
T4 sequence (P30872 whole entry): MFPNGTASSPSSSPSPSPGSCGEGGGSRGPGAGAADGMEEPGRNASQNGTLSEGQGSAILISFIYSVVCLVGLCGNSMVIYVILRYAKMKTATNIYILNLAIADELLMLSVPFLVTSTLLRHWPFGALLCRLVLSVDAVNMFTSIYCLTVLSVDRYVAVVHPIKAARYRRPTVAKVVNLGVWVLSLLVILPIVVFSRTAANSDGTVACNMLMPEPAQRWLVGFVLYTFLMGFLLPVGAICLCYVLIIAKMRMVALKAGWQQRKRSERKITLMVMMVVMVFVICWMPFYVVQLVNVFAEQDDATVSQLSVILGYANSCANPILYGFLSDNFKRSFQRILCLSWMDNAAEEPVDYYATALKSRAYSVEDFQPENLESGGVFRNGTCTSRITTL
The experiment can be described thus: NanoBRET screen HiBiT-SSTR1 in HEK293. How it is done:
as §1, §2

Where [1] appears, read: tracer at 0.1μM, listed as amitriptyline-b-2-NB590.
Setting [2] is: tracer at 1μM, listed as amitriptyline-b-2-NB590.

T1 sequence (Q9H461 28-694): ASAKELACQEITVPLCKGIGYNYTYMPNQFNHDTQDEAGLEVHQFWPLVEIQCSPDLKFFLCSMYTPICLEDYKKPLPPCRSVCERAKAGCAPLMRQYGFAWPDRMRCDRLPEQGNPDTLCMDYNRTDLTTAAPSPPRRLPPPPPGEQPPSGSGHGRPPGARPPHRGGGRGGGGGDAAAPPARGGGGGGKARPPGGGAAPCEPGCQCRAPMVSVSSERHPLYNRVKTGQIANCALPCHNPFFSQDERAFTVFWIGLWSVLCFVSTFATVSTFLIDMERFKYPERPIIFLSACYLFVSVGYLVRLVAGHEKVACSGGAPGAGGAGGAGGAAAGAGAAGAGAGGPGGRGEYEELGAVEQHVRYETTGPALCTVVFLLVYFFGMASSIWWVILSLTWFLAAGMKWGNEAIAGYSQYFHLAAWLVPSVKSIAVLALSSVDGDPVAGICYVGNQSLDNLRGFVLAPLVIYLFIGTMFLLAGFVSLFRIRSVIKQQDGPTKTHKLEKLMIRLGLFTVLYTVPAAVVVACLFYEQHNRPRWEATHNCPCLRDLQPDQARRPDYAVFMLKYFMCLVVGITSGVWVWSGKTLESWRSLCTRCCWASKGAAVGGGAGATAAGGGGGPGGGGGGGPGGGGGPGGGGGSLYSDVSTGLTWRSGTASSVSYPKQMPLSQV
T3 sequence (Q92847 whole entry): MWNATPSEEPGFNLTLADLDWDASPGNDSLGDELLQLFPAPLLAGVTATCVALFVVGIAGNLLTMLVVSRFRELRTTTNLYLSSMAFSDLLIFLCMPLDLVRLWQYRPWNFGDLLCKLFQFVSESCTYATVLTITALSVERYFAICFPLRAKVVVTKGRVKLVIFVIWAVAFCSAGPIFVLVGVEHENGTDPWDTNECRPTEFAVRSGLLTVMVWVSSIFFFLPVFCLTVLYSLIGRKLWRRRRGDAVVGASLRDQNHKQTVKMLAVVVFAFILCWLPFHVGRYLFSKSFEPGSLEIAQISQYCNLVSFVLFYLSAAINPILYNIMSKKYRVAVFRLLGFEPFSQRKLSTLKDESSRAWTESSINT

As for `N#CN=C(NCCCOc1cccc(CN2CCCCC2)c1)NCCNC(=O)CCOCCOCCOCCOCCNC(=O)CCc1ccc2n1[B-](F)(F)[N+]1=C(c3ccc[nH]3)C=CC1=C2` [Aminopotentidine-2-NB590], the “NanoBRET Fold Response” value on FZD8 (FZD8, tracer 0.1μM) stood at 0.98; at FZD8 (FZD8, tracer 1μM) it was 1.01; at HRH3 (HRH3, tracer 0.1μM), 2.54; at HRH3 (HRH3, tracer 1μM) it was 2.06; on GHSR (GHSR, tracer 0.1μM), 0.98; at GHSR (GHSR, tracer 1μM), 1.07. The “NanoBRET Fold Response” value on SSTR1 (SSTR1, tracer 0.1μM) came to 1.02; on SSTR1 (SSTR1, tracer 1μM), 0.98.

With `COc1ccc2c(n1)c(CCNC(C)=O)cn2CCNC(=O)CCc1ccc2n1[B-](F)(F)[N+]1=C(c3ccc[nH]3)C=CC1=C2` [Azamelatonin-1-NB590], the “NanoBRET Fold Response” value on FZD8 (0.1μM tracer) came to 1.39; at FZD8 (1μM tracer) it was 0.81; at HRH3 (0.1μM tracer), 1.07; at HRH3 (1μM tracer), 1.07; at GHSR (0.1μM tracer), 0.93; at GHSR (1μM tracer) it was 1.03. In addition, the “NanoBRET Fold Response” value at SSTR1 (0.1μM tracer) is listed as 1.08; on SSTR1 (1μM tracer), 1.03.

Take `CC(C)N(CC[C@H](c1ccccc1)c1cc(CCNC(=O)c2ccc(CNC(=O)CCc3ccc4n3[B-](F)(F)[N+]3=C(c5ccc[nH]5)C=CC3=C4)cc2)ccc1O)C(C)C` [Tolterodine-BZ-NB590]: the “NanoBRET Fold Response” value is given as 1.00 at FZD8 (FZD8, tracer 0.1μM); 1.02 at FZD8 (FZD8, tracer 1μM); 1.16 at HRH3 (HRH3, tracer 0.1μM); 1.28 at HRH3 (HRH3, tracer 1μM); 1.00 at GHSR (GHSR, tracer 0.1μM); 1.06 on GHSR (GHSR, tracer 1μM). The “NanoBRET Fold Response” value on SSTR1 (SSTR1, tracer 0.1μM) is 1.15; on SSTR1 (SSTR1, tracer 1μM), 1.20.

On to `O=C(CCc1ccc2n1[B-](F)(F)[N+]1=C(c3ccc[nH]3)C=CC1=C2)NCCOCCOCCNC(=O)OCCOCCN1CCN(C2=Nc3ccccc3Sc3ccccc32)CC1` [Quetiapine-a-2-NB590], for which the “NanoBRET Fold Response” value on FZD8 (FZD8, tracer 0.1μM) amounted to 1.02; at FZD8 (FZD8, tracer 1μM), 1.08; on HRH3 (HRH3, tracer 0.1μM) it was 1.09; at HRH3 (HRH3, tracer 1μM) it was 0.98; on GHSR (GHSR, tracer 0.1μM), 0.97; on GHSR (GHSR, tracer 1μM), 0.77. Besides, the “NanoBRET Fold Response” value on SSTR1 (SSTR1, tracer 0.1μM) was found to be 0.92; at SSTR1 (SSTR1, tracer 1μM) it was 0.92.

`Cc1cc2c(s1)Nc1ccccc1N=C2N1CCN(CCCNC(=O)CCOCCOCCOCCOCCNC(=O)CCc2ccc3n2[B-](F)(F)[N+]2=C(c4ccc[nH]4)C=CC2=C3)CC1` [Olanzapine-a-2-NB590]: the “NanoBRET Fold Response” value on FZD8 (FZD8, tracer 0.1μM) worked out at 0.95; on FZD8 (FZD8, tracer 1μM), 0.94; on HRH3 (HRH3, tracer 0.1μM), 1.06; on HRH3 (HRH3, tracer 1μM), 1.16; on GHSR (GHSR, tracer 0.1μM), 0.96; at GHSR (GHSR, tracer 1μM), 0.98. Further, the “NanoBRET Fold Response” value at SSTR1 (SSTR1, tracer 0.1μM) was found to be 1.08; on SSTR1 (SSTR1, tracer 1μM), 1.16.

For the molecule `CN(C)CCC=C1c2ccccc2CCc2ccc(C(=O)NCCNC(=O)CCOCCOCCOCCOCCNC(=O)CCc3ccc4n3[B-](F)(F)[N+]3=C(c5ccc[nH]5)C=CC3=C4)cc21` [Amitriptyline-b-2-NB590], the “NanoBRET Fold Response” value at FZD8 (tracer at 0.1μM) was determined as 1.03; on FZD8 (tracer at 1μM), 1.00; at HRH3 (setting [1]), 1.62; at HRH3 (setting [2]) it was 1.31; at GHSR (setting [1]) it was 1.07; at GHSR (setting [2]) it was 0.97. Also, on SSTR1 (setting [2]), the “NanoBRET Fold Response” value came to 1.07.

With `O=C(CCOCCOCCOCCOCCNC(=O)CCc1ccc2n1[B-](F)(F)[N+]1=C(c3ccc[nH]3)C=CC1=C2)NCCCN1CCN(C2=Nc3cc(Cl)ccc3Nc3ccccc32)CC1` [Clozapine-a-2-NB590], the “NanoBRET Fold Response” value at FZD8 (FZD8, 0.1μM tracer) is 1.02; at FZD8 (FZD8, 1μM tracer) it was 1.00; at HRH3 (HRH3, 0.1μM tracer) it was 0.97; on HRH3 (HRH3, 1μM tracer), 0.91; on GHSR (GHSR, 0.1μM tracer), 0.95; on GHSR (GHSR, 1μM tracer), 1.06. In addition, the “NanoBRET Fold Response” value on SSTR1 (SSTR1, 0.1μM tracer) stood at 0.96; on SSTR1 (SSTR1, 1μM tracer), 1.00.

Consider `CN1CCN(C2=Nc3cc(Cl)ccc3Nc3ccc(CNC(=O)CCOCCOCCOCCOCCNC(=O)CCc4ccc5n4[B-](F)(F)[N+]4=C(c6ccc[nH]6)C=CC4=C5)cc32)CC1` [Clozapine-b-2-NB590], for which the “NanoBRET Fold Response” value stood at 1.00 on FZD8 (FZD8, 0.1μM tracer); 1.02 at FZD8 (FZD8, 1μM tracer); 0.98 at HRH3 (HRH3, 0.1μM tracer); 1.06 on HRH3 (HRH3, 1μM tracer); 1.01 on GHSR (GHSR, 0.1μM tracer); 1.03 at GHSR (GHSR, 1μM tracer). Besides, the “NanoBRET Fold Response” value is given as 1.00 at SSTR1 (SSTR1, 0.1μM tracer) and 1.09 at SSTR1 (SSTR1, 1μM tracer).

Turning to `Cc1nc2n(c(=O)c1CCN1CCC(c3noc4cc(F)ccc34)CC1)CCCC2OC(=O)NCCOCCOCCOCCOCCNC(=O)CCc1ccc2n1[B-](F)(F)[N+]1=C(c3ccc[nH]3)C=CC1=C2` (centres unmarked) [Risperidone-2-NB590], the “NanoBRET Fold Response” value at FZD8 (FZD8, tracer 0.1μM) was 1.02; on FZD8 (FZD8, tracer 1μM), 1.12; at HRH3 (HRH3, tracer 0.1μM), 1.07; at HRH3 (HRH3, tracer 1μM), 1.58; on GHSR (GHSR, tracer 0.1μM) it was 1.06; on GHSR (GHSR, tracer 1μM), 1.02. Besides, the “NanoBRET Fold Response” value on SSTR1 (SSTR1, tracer 0.1μM) is 1.08; on SSTR1 (SSTR1, tracer 1μM), 0.94.
